{"source": "patent US20250205173A1", "about": "“DERMAL AND TRANSDERMAL ADMINISTRATION OF TREPROSTINIL AND SALTS THEREOF” (CORSAIR PHARMA, INC., priority 2019, published 2025)", "key": {"[1]": {"settings": "cited from earlier work"}, "[2]": {"assay": "Skin irritation study of treprostinil reservoir-type transdermal patch, Draize scale", "type": "in vivo, Göttingen Minipigs", "design": "key to Edema score: 0: No edema; 1: Very slight edema (barely perceptible); 2: Slight edema (edges of area well defined by definite raising); 3: Moderate edema (raised about 1 mm); 4: Severe edema (raised >1 mm and extending beyond area of exposure); key to Erythema score: 0: No erythema; 1: Very slight erythema (barely perceptible); 2: Well-defined erythema; 3: Moderate to severe erythema; 4: Severe erythema (beet redness) to slight eschar formation (injuries in depth)", "settings": "for Edema score / Erythema score: 10 mg patch", "protocol": "The pig is frequently used in studies involving dermal or transdermal administration of a drug because the skin of the pig is very similar to human skin. Skin irritation following transdermal administration of treprostinil from a reservoir-type transdermal patch was assessed in Göttingen Minipigs® (Marshall BioResources, North Rose, New York). The treprostinil-containing reservoir transdermal patch was a 32 cm^2 circular patch with a 6 cm^2 gel-sealed area and a 26 cm^2 peripheral skin-adhesive area. The placebo reservoir transdermal patch was a 39 cm^2 oval patch with a 12 cm^2 gel-sealed area and a 27 cm^2 peripheral skin-adhesive area. The reservoir of the patches comprised a gel composed of hydroxypropyl cellulose and containing ethanol, isopropyl myristate and 10 mg treprostinil or no active agent for the placebo patch. The reservoir was packaged by heat seal between a backing layer composed of metalized polyester/ethylene-vinyl acetate and a semi-permeable microporous membrane composed of polyethylene. A transparent release liner that protected the gel reservoir area and the peripheral adhesive area was peeled off immediately prior to patch application. The patches had the structure of the patch depicted in FIG. 1. To facilitate patch application (dosing) and to ensure animal safety during the dosing procedure, the minipigs were sedated with the anesthetic Telazol, if necessary, via intramuscular injection at an initial dose of 3-6 mg/kg. Any use of Telazol is indicated in the study data. Both the treprostinil-containing and placebo transdermal patches were applied to the dorsal surface of each of three female Göttingen Minipigs® weighing about 15-25 kg and were left in place for 24 hr. The dosing sites (the entire flank on both sides of the dorsal midline, caudal to the scapula) were carefully clipped with an electric clipper on the day prior to application of the patches and then were carefully washed with room temperature (RT) saline to remove dirt and debris. The prepared area was large enough to accommodate several patches. The dosing sites then were carefully shaved smooth with a razor while not causing any nick or cut. RT saline, but no shaving cream, could be used to assist shaving. The dosing sites were then wrapped with bandaging that was secured with a non-irritating, semi-occlusive tape (e.g., Elastikon tape). The minipigs were then fitted with a jacket. On the day of application of the patches, the jacket and wrapping were removed from the minipigs. The dosing sites were visually inspected to confirm the absence of any abrasion or obvious dermal pathology, and were gently cleaned with an isopropanol wipe and were then allowed to air-dry for at least 5 min. The patches were applied to areas of the skin without any abrasion or obvious dermal pathology by applying firm finger pressure to the peripheral adhesive area of the patches to ensure firm adherence of the peripheral area to the skin. To prevent detachment of the patches, TegadermTM dressing (or an equivalent transparent adhesive dressing, such as PatchProtectTM dressing) was applied over the patches, extending at least 2 inches beyond the edges of the patches and adhering to the peripheral area of the patches and to the skin surrounding the patches. The sites of patch application were wrapped with gauze or […] bandaging (or equivalent) that was secured with a non-irritating, semi-occlusive tape (e.g., Elastikon tape). The minipigs were then fitted with a jacket to prevent patch disturbance. The patches were kept in place at the dosing sites for 24 hr. […] Photographs of the sites of patch application were taken just prior to patch removal, following patch removal, and at 2 (±15 min), 24 (±1 hr), 48, 72, 96, 120, 144 and 168 hours after patch removal. The following scores are based on the Draize scale for scoring skin irritation [J. Draize et al., J. Pharmacol. Exp. Ther., 82:377-390 (1944)]. [table] [table]"}, "[3]": {"settings": "cited from earlier work", "remark": "listed apart in the source"}, "[4]": {"assay": "In vitro skin permeability assay, vertical Franz diffusion cell", "type": "in vitro ADME", "settings": "human epidermis from different donors, 32° C., N=4 per donor", "protocol": "A skin permeability assay was performed using a vertical Franz diffusion cell having a diffusion area of 0.64 cm^2 and a volume of 7.5 mL. The assay was conducted at 32° C. with continuous stirring. Heat-separated human cadaver epidermis was used in the assay, the epidermis being stored at −20° C. after the heat-stripping procedure. The human epidermis was thawed prior to being mounted on the diffusion cell. Treprostinil was applied on the skin, and the diffusion cell was closed by screw-cap. At various time intervals, whole medium or receptor medium was replaced by fresh medium. Part of the collected medium was used to calculate the cumulative skin permeability of treprostinil at 72 hours. The skin permeability of treprostinil was evaluated using human epidermis from different donors. N=4 replicates were performed for treprostinil tested on human epidermis from a particular donor."}, "[5]": {"assay": "Pharmacokinetics of transdermally delivered treprostinil from reservoir-type patch", "settings": "Göttingen, minipig, in vivo, four patches, total 160 mg treprostinil, in place 72 hr, two male minipigs", "text": "Pharmacokinetics (PK) following transdermal administration of treprostinil from a reservoir-type transdermal patch was studied in Göttingen Minipigs® (Marshall BioResources). The treprostinil-containing reservoir transdermal patch was a 39 cm^2 oval patch with a 12 cm^2 gel-sealed area and a 27 cm^2 peripheral skin-adhesive area. […] Naïve male Göttingen Minipigs® about 6 months of age at receipt and weighing about 23 kg at patch application were used in the PK study. To facilitate application of the transdermal patch, the minipigs were sedated with Telazol at 3 mg/kg via intramuscular injection. Prior to patch application the dosing sites on the minipigs were prepared similarly as described in Example 2, and patch application was performed similarly as described in Example 2 except that bandaging was reapplied to the sites of patch application once a day. Four transdermal patches containing a total of 160 mg treprostinil were applied at the same time to the dorsal surface of each of two minipigs and were left in place for 72 hr. Blood samples were collected within 1 hr prior to application of the patches; at 3, 6, 12, 24, 48 and 72 hours after application of the patches; and at 0.167, 0.5, 1, 2, 4 and 6 hours after removal of the patches."}, "[6]": {"settings": "minipig 601, 2 hr post patch removal, 24 hr"}, "[7]": {"settings": "minipig 601, 24 hr post patch removal, 24 hr"}, "[8]": {"settings": "minipig 601, 48 hr post patch removal, 24 hr"}, "[9]": {"settings": "minipig 601, 72 hr post patch removal, 24 hr"}, "[10]": {"settings": "minipig 601, 96 hr post patch removal, 24 hr"}, "[11]": {"settings": "minipig 601, 120 hr post patch removal, 24 hr"}, "[12]": {"settings": "minipig 601, before patch application"}, "[13]": {"settings": "minipig 602, 2 hr post patch removal, 24 hr"}, "[14]": {"settings": "minipig 602, 24 hr post patch removal, 24 hr"}, "[15]": {"settings": "minipig 602, 48 hr post patch removal, 24 hr"}, "[16]": {"settings": "minipig 602, 72 hr post patch removal, 24 hr"}, "[17]": {"settings": "minipig 602, 96 hr post patch removal, 24 hr"}, "[18]": {"settings": "minipig 602, 120 hr post patch removal, 24 hr"}, "[19]": {"settings": "minipig 602, before patch application"}, "[20]": {"settings": "minipig 603, 2 hr post patch removal, 24 hr"}, "[21]": {"settings": "minipig 603, 24 hr post patch removal, 24 hr"}, "[22]": {"settings": "minipig 603, 48 hr post patch removal, 24 hr"}, "[23]": {"settings": "minipig 603, 72 hr post patch removal, 24 hr"}, "[24]": {"settings": "minipig 603, 96 hr post patch removal, 24 hr"}, "[25]": {"settings": "minipig 603, 120 hr post patch removal, 24 hr"}, "[26]": {"settings": "minipig 603, before patch application"}}, "data": [{"smiles": "CCCCC[C@H](O)CC[C@@H]1[C@H]2Cc3cccc(OCC(=O)O)c3C[C@H]2C[C@H]1O", "note": "[Treprostinil]", "values": [{"measurement": "peak-to-trough ratio of plasma concentrations", "setting": "[1]; administered by inhalation", "result": "large"}, {"measurement": "PAH patients who cannot take inhaled treprostinil due to irritation to the lungs", "setting": "[1]; inhalation", "result": "about 50%"}, {"measurement": "Edema score", "setting": "[2]; [6]", "result": 0}, {"measurement": "Erythema score", "setting": "[2]; [6]", "result": 1}, {"measurement": "Edema score", "setting": "[2]; [7]", "result": 0}, {"measurement": "Erythema score", "setting": "[2]; [7]", "result": 1}, {"measurement": "Edema score", "setting": "[2]; [8]", "result": 0}, {"measurement": "Erythema score", "setting": "[2]; [8]", "result": 1}, {"measurement": "Edema score", "setting": "[2]; [9]", "result": 0}, {"measurement": "Erythema score", "setting": "[2]; [9]", "result": 0}, {"measurement": "Edema score", "setting": "[2]; [10]", "result": 0}, {"measurement": "Erythema score", "setting": "[2]; [10]", "result": 0}, {"measurement": "Edema score", "setting": "[2]; [11]", "result": 0}, {"measurement": "Erythema score", "setting": "[2]; [11]", "result": 0}, {"measurement": "Edema score", "setting": "[2]; [12]", "result": 0}, {"measurement": "Erythema score", "setting": "[2]; [12]", "result": 0}, {"measurement": "Edema score", "setting": "[2]; [13]", "result": 0}, {"measurement": "Erythema score", "setting": "[2]; [13]", "result": 1}, {"measurement": "Edema score", "setting": "[2]; [14]", "result": 0}, {"measurement": "Erythema score", "setting": "[2]; [14]", "result": 1}, {"measurement": "Edema score", "setting": "[2]; [15]", "result": 0}, {"measurement": "Erythema score", "setting": "[2]; [15]", "result": 0}, {"measurement": "Edema score", "setting": "[2]; [16]", "result": 0}, {"measurement": "Erythema score", "setting": "[2]; [16]", "result": 0}, {"measurement": "Edema score", "setting": "[2]; [17]", "result": 0}, {"measurement": "Erythema score", "setting": "[2]; [17]", "result": 0}, {"measurement": "Edema score", "setting": "[2]; [18]", "result": 0}, {"measurement": "Erythema score", "setting": "[2]; [18]", "result": 0}, {"measurement": "Edema score", "setting": "[2]; [19]", "result": 0}, {"measurement": "Erythema score", "setting": "[2]; [19]", "result": 0}, {"measurement": "Edema score", "setting": "[2]; [20]", "result": 0}, {"measurement": "Erythema score", "setting": "[2]; [20]", "result": 2}, {"measurement": "Edema score", "setting": "[2]; [21]", "result": 0}, {"measurement": "Erythema score", "setting": "[2]; [21]", "result": 2}, {"measurement": "Edema score", "setting": "[2]; [22]", "result": 0}, {"measurement": "Erythema score", "setting": "[2]; [22]", "result": 0}, {"measurement": "Edema score", "setting": "[2]; [23]", "result": 0}, {"measurement": "Erythema score", "setting": "[2]; [23]", "result": 0}, {"measurement": "Edema score", "setting": "[2]; [24]", "result": 0}, {"measurement": "Erythema score", "setting": "[2]; [24]", "result": 0}, {"measurement": "Edema score", "setting": "[2]; [25]", "result": 0}, {"measurement": "Erythema score", "setting": "[2]; [25]", "result": 0}, {"measurement": "Edema score", "setting": "[2]; [26]", "result": 0}, {"measurement": "Erythema score", "setting": "[2]; [26]", "result": 0}, {"measurement": "skin irritation (summary)", "setting": "[2]; reservoir patch 10 mg treprostinil with isopropyl myristate and ethanol, in place 24 hr, three female minipigs", "result": "did not cause significant skin irritation"}, {"measurement": "systemic half-life", "setting": "[3]; free acid, due to significant metabolism", "result": "very short"}, {"measurement": "absolute oral bioavailability", "setting": "[3]; treprostinil as the free acid, oral", "result": "less than 10%"}, {"measurement": "cumulative skin permeability at 72 hours", "setting": "[4]", "result": "high"}, {"measurement": "concentration at 72 hr", "setting": "[5]; other: transdermal (reservoir-type patch), read-out: C72 hr", "result": "2.4 to 4.9", "unit": "ng/mL"}, {"measurement": "Cmax", "setting": "[5]; topical or ocular", "result": "20.8 to 27.6", "unit": "ng/mL"}, {"measurement": "Tmax", "setting": "[5]; topical or ocular", "result": 6, "unit": "h"}, {"measurement": "AUC(0-t)", "setting": "[5]; topical or ocular, read-out: AUC0-72", "result": "429 to 946", "unit": "ng·h/mL"}, {"measurement": "half-life", "setting": "[5]; topical or ocular, read-out: half-life (T1/2) during treatment", "result": "28 to 35", "unit": "h"}]}]}
